Article PMC7912740 (Pharmaceutics, 2021)
Like-named read-outs stand apart in the source and are kept apart here.

What was measured:
Type in all cases: biochemical
UGT1A1 [1] = target: T1, UGT1A1 (Homo sapiens, UniProt P22309); experiment: SN-38 glucuronidation in human liver microsomes, cocktail, LC-MS/MS; conditions: 0.5 µM SN-38 (probe cocktail set A), 5 mM UDPGA, 10 mM MgCl2, alamethicin, pH 7.4, 37 °C, 60 min
T1 construct: native enzyme in ultrapooled human liver microsomes (Corning 452161), read by SN-38 glucuronidation
T1 sequence (P22309 26-533): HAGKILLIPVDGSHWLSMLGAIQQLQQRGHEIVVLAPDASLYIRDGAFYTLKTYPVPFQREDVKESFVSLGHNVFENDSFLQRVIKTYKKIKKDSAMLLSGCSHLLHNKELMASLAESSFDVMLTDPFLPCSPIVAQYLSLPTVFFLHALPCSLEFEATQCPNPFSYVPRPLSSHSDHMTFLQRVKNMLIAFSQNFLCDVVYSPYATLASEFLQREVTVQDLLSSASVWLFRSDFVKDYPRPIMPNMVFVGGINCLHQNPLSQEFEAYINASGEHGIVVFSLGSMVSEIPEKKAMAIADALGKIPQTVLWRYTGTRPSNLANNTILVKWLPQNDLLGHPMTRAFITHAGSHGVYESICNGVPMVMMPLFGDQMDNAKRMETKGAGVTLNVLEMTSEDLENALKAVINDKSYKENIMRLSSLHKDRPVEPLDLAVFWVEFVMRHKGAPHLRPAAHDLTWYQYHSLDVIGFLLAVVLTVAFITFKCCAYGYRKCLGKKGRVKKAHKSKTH

UGT1A6 = target: T2, UGT1A6 (Homo sapiens, UniProt P19224); experiment: N-acetylserotonin glucuronidation in human liver microsomes, cocktail, LC-MS/MS; conditions: 1 µM N-acetylserotonin (probe cocktail set B), 5 mM UDPGA, 10 mM MgCl2, alamethicin, pH 7.4, 37 °C, 60 min
T2 construct: native enzyme in ultrapooled human liver microsomes (Corning 452161), read by N-acetylserotonin glucuronidation
T2 sequence (P19224 27-532): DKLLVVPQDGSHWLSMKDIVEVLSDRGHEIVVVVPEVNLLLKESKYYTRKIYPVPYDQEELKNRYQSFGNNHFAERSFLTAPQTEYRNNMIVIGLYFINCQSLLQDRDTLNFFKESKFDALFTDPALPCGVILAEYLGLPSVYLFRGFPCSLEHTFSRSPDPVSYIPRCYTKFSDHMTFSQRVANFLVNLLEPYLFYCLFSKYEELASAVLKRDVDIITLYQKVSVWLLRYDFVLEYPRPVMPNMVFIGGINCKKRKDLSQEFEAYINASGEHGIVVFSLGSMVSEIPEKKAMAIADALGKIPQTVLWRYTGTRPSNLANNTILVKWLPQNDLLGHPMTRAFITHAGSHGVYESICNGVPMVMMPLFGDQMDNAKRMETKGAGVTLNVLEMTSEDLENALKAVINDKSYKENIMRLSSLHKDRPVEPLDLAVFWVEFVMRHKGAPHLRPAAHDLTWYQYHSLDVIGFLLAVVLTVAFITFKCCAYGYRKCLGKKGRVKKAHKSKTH

UGT1A1 [2] = target: T1, UGT1A1; experiment: SN-38 glucuronidation in human liver microsomes, LC-MS/MS, Dixon plot; conditions: SN-38 0.2–2 µM, 5 mM UDPGA, 10 mM MgCl2, alamethicin, pH 7.4, 30 min; noncompetitive
UGT1A3 [3] = target: T3, UGT1A3 (Homo sapiens, UniProt P35503); experiment: chenodeoxycholic acid 24-acyl-glucuronidation in human liver microsomes, LC-MS/MS, Dixon plot; conditions: chenodeoxycholic acid 1–10 µM, 5 mM UDPGA, 10 mM MgCl2, alamethicin, pH 7.4, 30 min; competitive
T3 construct: native enzyme in ultrapooled human liver microsomes (Corning 452161), read by chenodeoxycholic acid 24-acyl-glucuronidation
T3 sequence (P35503 29-534): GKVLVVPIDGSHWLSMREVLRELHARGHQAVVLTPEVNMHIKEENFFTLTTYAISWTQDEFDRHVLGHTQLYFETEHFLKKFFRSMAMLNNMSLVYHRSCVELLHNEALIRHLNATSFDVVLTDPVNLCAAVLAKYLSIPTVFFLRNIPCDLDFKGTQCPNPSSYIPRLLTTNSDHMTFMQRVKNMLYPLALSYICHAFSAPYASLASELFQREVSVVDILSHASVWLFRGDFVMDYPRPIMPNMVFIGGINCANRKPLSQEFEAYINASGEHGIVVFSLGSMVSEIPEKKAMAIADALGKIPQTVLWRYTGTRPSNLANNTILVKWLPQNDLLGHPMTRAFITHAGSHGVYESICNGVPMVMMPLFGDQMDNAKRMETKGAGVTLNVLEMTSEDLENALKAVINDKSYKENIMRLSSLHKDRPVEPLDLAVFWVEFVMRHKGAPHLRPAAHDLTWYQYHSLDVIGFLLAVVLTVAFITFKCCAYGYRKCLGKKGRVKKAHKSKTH

UGT1A9 = target: T4, UGT1A9 (Homo sapiens, UniProt O60656); experiment: mycophenolic acid glucuronidation in human liver microsomes, cocktail, LC-MS/MS; conditions: 0.2 µM mycophenolic acid (probe cocktail set B), 5 mM UDPGA, 10 mM MgCl2, alamethicin, pH 7.4, 37 °C, 60 min
T4 construct: native enzyme in ultrapooled human liver microsomes (Corning 452161), read by mycophenolic acid glucuronidation
T4 sequence (O60656 26-530): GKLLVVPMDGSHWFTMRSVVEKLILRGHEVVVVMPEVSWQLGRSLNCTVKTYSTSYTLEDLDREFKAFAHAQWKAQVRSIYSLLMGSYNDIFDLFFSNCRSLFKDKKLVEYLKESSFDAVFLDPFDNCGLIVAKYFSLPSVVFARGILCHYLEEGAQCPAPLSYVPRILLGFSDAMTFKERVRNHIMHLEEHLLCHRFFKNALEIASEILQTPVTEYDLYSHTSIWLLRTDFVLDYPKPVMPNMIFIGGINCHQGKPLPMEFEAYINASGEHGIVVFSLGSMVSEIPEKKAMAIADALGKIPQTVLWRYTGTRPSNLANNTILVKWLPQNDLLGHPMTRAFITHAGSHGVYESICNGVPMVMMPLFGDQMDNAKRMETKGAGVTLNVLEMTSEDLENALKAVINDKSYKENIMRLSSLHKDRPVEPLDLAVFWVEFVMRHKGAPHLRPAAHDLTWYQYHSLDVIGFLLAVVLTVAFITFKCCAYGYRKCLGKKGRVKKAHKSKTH

UGT1A4 = target: T5, UGT1A4 (Homo sapiens, UniProt P22310); experiment: trifluoperazine N-glucuronidation in human liver microsomes, cocktail, LC-MS/MS; conditions: 0.5 µM trifluoperazine (probe cocktail set A), 5 mM UDPGA, 10 mM MgCl2, alamethicin, pH 7.4, 37 °C, 60 min; read-out: IC50 (μM) / Eudesmin
T5 construct: native enzyme in ultrapooled human liver microsomes (Corning 452161), read by trifluoperazine N-glucuronidation
T5 sequence (P22310 29-534): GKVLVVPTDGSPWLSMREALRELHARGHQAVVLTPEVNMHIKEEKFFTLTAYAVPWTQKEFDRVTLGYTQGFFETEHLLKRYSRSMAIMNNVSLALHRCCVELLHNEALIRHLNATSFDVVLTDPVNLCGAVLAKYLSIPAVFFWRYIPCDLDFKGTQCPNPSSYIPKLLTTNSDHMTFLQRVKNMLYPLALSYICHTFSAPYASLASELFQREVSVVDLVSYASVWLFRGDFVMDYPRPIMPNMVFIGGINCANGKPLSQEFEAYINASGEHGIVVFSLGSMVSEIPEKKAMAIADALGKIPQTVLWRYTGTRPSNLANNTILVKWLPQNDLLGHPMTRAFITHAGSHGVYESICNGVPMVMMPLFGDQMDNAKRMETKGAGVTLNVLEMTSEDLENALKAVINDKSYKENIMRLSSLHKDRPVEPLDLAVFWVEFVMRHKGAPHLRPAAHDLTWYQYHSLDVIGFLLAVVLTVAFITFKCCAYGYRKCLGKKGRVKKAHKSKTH

UGT2B7 = target: T6, UGT2B7 (Homo sapiens, UniProt P16662); experiment: naloxone 3-beta-D-glucuronidation in human liver microsomes, cocktail, LC-MS/MS; conditions: 1 µM naloxone (probe cocktail set B), 5 mM UDPGA, 10 mM MgCl2, alamethicin, pH 7.4, 37 °C, 60 min; read-out: IC50 (μM) / Eudesmin
T6 construct: native enzyme in ultrapooled human liver microsomes (Corning 452161), read by naloxone 3-glucuronidation
T6 sequence (P16662 24-529): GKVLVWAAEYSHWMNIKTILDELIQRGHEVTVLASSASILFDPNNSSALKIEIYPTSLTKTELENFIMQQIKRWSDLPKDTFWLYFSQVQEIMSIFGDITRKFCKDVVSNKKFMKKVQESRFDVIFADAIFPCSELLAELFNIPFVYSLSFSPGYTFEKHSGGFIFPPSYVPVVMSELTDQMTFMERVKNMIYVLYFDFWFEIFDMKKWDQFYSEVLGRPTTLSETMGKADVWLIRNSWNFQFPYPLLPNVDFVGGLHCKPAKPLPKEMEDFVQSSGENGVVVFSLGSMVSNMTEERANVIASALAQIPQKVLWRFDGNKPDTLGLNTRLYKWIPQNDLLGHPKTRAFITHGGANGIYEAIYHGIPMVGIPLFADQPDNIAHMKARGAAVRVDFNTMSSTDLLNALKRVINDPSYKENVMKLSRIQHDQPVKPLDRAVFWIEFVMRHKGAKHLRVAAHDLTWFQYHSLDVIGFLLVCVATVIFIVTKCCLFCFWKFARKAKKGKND

UGT1A3 [4] = target: T3, UGT1A3; experiment: chenodeoxycholic acid 24-acyl-glucuronidation in human liver microsomes, cocktail, LC-MS/MS; conditions: 2 µM chenodeoxycholic acid (probe cocktail set A), 5 mM UDPGA, 10 mM MgCl2, alamethicin, pH 7.4, 37 °C, 60 min
[5] = read-out: IC50 (μM) / Yangambin
[6] = read-out: IC50 (μM) / Epimagnolin A

| IC50 (UGT1A1 [1]; [5]) [µM] | IC50 (UGT1A6; [6]) [µM] | Ki (UGT1A1 [2]) [µM] | Ki (UGT1A3 [3]) [µM] | IC50 (UGT1A9; [6]) [µM] | IC50 (UGT1A4) [µM] | IC50 (UGT2B7) [µM] | IC50 (UGT1A3 [4]; [5]) [µM] | IC50 (UGT1A1 [1]; read-out: IC50 (μM) / Eudesmin) [µM] | IC50 (UGT1A6; read-out: IC50 (μM) / Eudesmin) [µM] | IC50 (UGT1A9; read-out: IC50 (μM) / Eudesmin) [µM] | IC50 (UGT1A3 [4]; read-out: IC50 (μM) / Eudesmin) [µM] | Compound |
| --- | --- | --- | --- | --- | --- | --- | --- | --- | --- | --- | --- | --- |
| 29.7 | > 200 | 17.1 | 66.8 | > 200 | > 200 | > 200 | 56.5 |  |  |  |  | COc1cc([C@H]2OC[C@H]3[C@@H]2CO[C@@H]3c2cc(OC)c(OC)c(OC)c2)cc(OC)c1OC [Yangambin] |
|  |  | 25.7 | 39.8 |  | > 200 | > 200 |  | 24.3 | 196 | 173 | 26.6 | COc1ccc([C@H]2OC[C@H]3[C@@H]2CO[C@@H]3c2ccc(OC)c(OC)c2)cc1OC [Eudesmin] |
